Results on 2 compounds are retold here after publication PMC4602143, “A combined bioinformatics and functional metagenomics approach to discovering lipolytic biocatalysts” (Frontiers in Microbiology, 2015).

The structures appear in SMILES notation. Where two headings read alike, the source gives them in different places.

The test concerns T1, PL-GOS.
T1 construct: synthetic gene; N-terminal His6 with TEV site, tag cut by TEV protease; E. coli BL21(DE3) strain TMBL1503, pET-11a
Kind of test: pNP release, OD405, Lineweaver-Burk. The class given is biochemical, metagenome: ocean surface water (Global Ocean Sampling). Conditions: 50 mM Tris-HCl pH 7.3, 20°C, 65 nM enzyme. An excerpt:
pNP release, OD405, Lineweaver-Burk on PL-GOS

As to `CCCC(=O)Oc1ccc([N+](=O)[O-])cc1` [pNP-butyrate], under “read-out: pNP-butyrate”, the Km stood at 66.7 µM.

In the case of `CCCCCCCCCCCCCCCC(=O)Oc1ccc([N+](=O)[O-])cc1` [pNP-palmitate], the Km (substrate above 20 μM (non-Michaelis-Menten below), read-out: pNP-palmitate) is 68.1 µM.
